Data published in US20070259819A1, “Cosmetic Use of at Least Natural Tetrapeptide Ac-Ser-Asp-Lys-Pro or One of Its Analogs as a Skin Anti-Aging and Restructuring Agent” (Centre National De La Recherche Scientfique (CNRS), priority 2004, published 2007).
Entries after “also recorded” stand apart in the source; their conditions may differ. Peptide text beside a SMILES is read from it.

Key:
Type in all cases: cell-based
[1] = system: human skin explants; assay: General morphology of human skin explants (histology); settings: topical daily
Description: (§1) This study was conducted on thirty six human skin explants obtained from breast plastic surgery.
(§2) All the explants were maintained in a state of survival in a culture medium for eight days. AcSDKP at a concentration of 10^−5 M or 10^−8 M in physiological serum was applied to the explants by topical route every day for one week. On days 2, 4, 6 and 8, three explants from each batch (control, +AcSDKP 10^−5 M+ AcSDKP 10^−8 M) were removed and prepared for histological studies. General morphology was examined and an evaluation of the expression of basal keratin (CK14), undifferentiated keratin (CK19), collagen III, collagen IV, fibronectin and glycosaminoglycan without an acid group was performed.

[2] = system: basal keratin (CK14); assay: Immunolabelling of keratin 14 in human skin explants
Description: as §1, §2

[3] = system: undifferentiated keratin (CK19); assay: Immunolabelling of keratin 19 in human skin explants
Description: as §1, §2

[4] = system: collagen III; assay: Immunolabelling of collagen III in human skin explants
Description: as §1, §2

[5] = system: collagen IV; assay: Immunolabelling of collagen IV in human skin explants; settings: D6 and D8
Description: as §1, §2

[6] = system: fibronectin; assay: Immunolabelling of fibronectin in human skin explants
Description: as §1, §2

[7] = system: glycosaminoglycan without an acid group; assay: P.A.S. Alcian blue staining of glycosaminoglycans without acid groups in human skin explants
Description: as §1, §2
This effect, clearly visible at D6 and D8, is characterised by a PAS positive increase in the number of fibroblasts in the papillary dermis, especially in the band situated along the dermo-epidermal junction and by increased levels of GAGs in these fibroblasts.

[8] = topical daily, human skin explants, immunolabelling

CC(=O)N[C@@H](CO)C(=O)N[C@@H](CC(=O)O)C(=O)N[C@@H](CCCCN)C(=O)N1CCC[C@H]1C(=O)O [AcSDKP, CH3CO-Ser-Asp-Lys-Pro] (Ac-SDKP-OH)
General morphology: epidermal structure ([1]; 10^-5 M and 10^-8 M, human skin explants): triggers stimulation of the epidermal structure as of D6 of treatment | Increase in epidermal thickness ([1]; 10^-5 M compared with 10^-8 M): increase in epidermal thickness is greater | Keratin 14 (CK14) restructuring effect ([2]; 10^-5 M compared with 10^-8 M): restructuring effect is greater | Keratin 14 (CK14) expression [2, 8]: gradual increase in the levels of this protein in the basal and superbasal position as of D4 of treatment | Keratin 19 (CK19) expression ([3]; 10^-5 M and 10^-8 M, topical daily, immunolabelling): overexpression of the skin's dermal attachments as of D6 of treatment | Keratin 19 (CK19) expression ([3]; 10^-5 M compared with 10^-8 M): less marked effect | Collagen III expression ([4]; 10^-5 M, D8): very clear overexpression of collagen III in the papillary and reticular dermis | Collagen III levels ([4]; 10^-5 M, six days of treatment): very marked increase in collagen III levels in the papillary dermis along the dermo-epidermal junction | Collagen III level ([4]; 10^-8 M, D8): level of collagen III increases along the dermo-epidermal junction and forms a thicker collagen band | Collagen III expression along the dermo-epidermal junction ([4]; 10^-8 M, six days of treatment, compared with 10^-5 M): less pronounced | Collagen IV levels in the basal membrane ([5]; 10^-5 M and 10^-8 M): less pronounced than that for type III collagen | Increase in collagen IV levels ([5]; 10^-5 M compared with 10^-8 M): higher | Fibronectin expression ([6]; 10^-5 M compared with 10^-8 M): greater activity | Fibronectin expression [6, 8]: fibronectin network is denser and has thicker fibres; also recorded: triggers overexpression of this protein along a dermo-epidermal junction as well as in the papillary and reticular dermis | Glycosaminoglycan (GAGs) levels ([7]; 10^-5 M and 10^-8 M, clearly visible at D6 and D8): significant increase in the levels of these compounds in the skin | Glycosaminoglycan (GAGs) expression ([7]; 10^-5 M compared with 10^-8 M): higher level of activity
